Source: PubChem BioAssay (NCI)
Values joined by “and” are separate entries in the source; they are usually repeats but may differ in a detail not shown here. Equal entries are not always repeated.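 Grown in 96-well plates, cells were treated for 48 hours with each compound at five concentrations. Insufficient inhibition: endpoint recorded as highest concentration tested. GI50 marks 50% less growth. At the TGI there is no net growth.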

What was measured:
Test in all cases: NCI tumour cell line growth inhibition, 48 h
[1] = tested on: CAKI-1 renal
[2] = tested on: HOP-62 NSCLC
[3] = tested on: IGROV1 ovarian
[4] = tested on: MOLT-4 leukemia
[5] = tested on: NCI/ADR-RES ovarian
[6] = tested on: OVCAR-8 ovarian
[7] = tested on: SN12C renal
[8] = tested on: NCI-H522 lung
[9] = tested on: SF-539 CNS
[10] = tested on: RXF 393 renal

SMILES	TGI [1] [µM]	TGI [2] [µM]	TGI [3] [µM]	TGI [4] [µM]	TGI [5] [µM]	TGI [6] [µM]	TGI [7] [µM]	TGI [8] [µM]	TGI [9] [µM]	TGI [10] [µM]	GI50 [2]	GI50 [3]	GI50 [4]	GI50 [8]	GI50 [6]	GI50 [1] [nM]	GI50 [9] [nM]	GI50 [7] [nM]
COc1ccc2[nH]c(C(=O)N3CC(CCl)c4c3cc(N)c3ccccc43)cc2c1 (stereo unspecified)	< 0.01	0.0358	18.2	< 0.0153	< 0.0172	< 0.0177	< 0.0183											
CN[C@@H](C)[C@@H](O)c1ccccc1	> 100	> 100	> 100	> 100	> 100	> 100	> 100	> 10	> 100									
COC(=O)NC(Cc1ccccc1)NC(C)=O (stereo unspecified)	> 100	> 100	> 100	> 100	> 100	> 100	> 100	> 100	> 100	> 100								
CCCCCN(CCCCC)CC(C)(C)C(O)c1ccc(OC)c2ccccc12 (stereo unspecified)	28	> 100	14.3	76.9	26.3	22.9	25.2	20.3	17.6	24.1								
Cc1cc(N2CCCC2)c([N+](=O)[O-])cc1[N+](=O)[O-]	> 100		> 100	> 100	> 100	> 100	> 100	> 100	> 100	> 100								
CCN(CC)CCOc1ccc(C(O)(Cc2ccc(OC)cc2)c2ccccc2)cc1 (stereo unspecified)	50.9	32.5	87.8	38.4		> 100	> 100	40.9	25.1	30.4								
CC(=O)Oc1cc(OC(C)=O)c2c(C)cc(=O)oc2c1		> 100	> 100	> 100	> 100	> 100	> 100		> 100									
N=c1oc2ccccc2cc1-c1nc2ccccc2c(=O)[nH]1	> 100	69.9	> 100	> 100	> 100	> 100	> 100	> 100	> 100	> 100								
O=C(O)CCc1ccc2c(c1)CC1(Cc3ccccc3C1)C2		> 100	> 100	> 100	> 100	> 100	> 100	> 100	> 100	> 100								
O=[N+]([O-])c1ccc(N2N=C(c3ccc4ccccc4c3O)CC2c2ccc(Cl)cc2)c([N+](=O)[O-])c1 (stereo unspecified)	> 100	> 100	> 100	49	> 100	> 100	> 100	62.4	> 100	> 100								
COc1ccc2c(c1)c1nn(CCN3CCCCC3)c3ccc4c(=O)n(CCN(C)C)c(=O)n2c4c13	0.375	0.0384	< 0.0174		1.91	0.3	0.0984	< 0.0341	0.975	< 0.0374								
COc1ccc(N=C2C(=Nc3ccc(OC)cc3)N(c3ccc(N(C)C)cc3)C(=S)N2c2ccc(OC)cc2)cc1	> 100	> 100	> 100	> 100	> 100	> 52	> 100	> 100	> 100									
CCOC(=O)C(NC(=O)CC)(Nc1ccc(F)c(Cl)c1)C(F)(F)F (stereo unspecified)	> 100	> 100	> 100	> 100	> 100	> 100	> 100	> 100	> 100	> 100								
Cc1ccc(S(=O)(=O)n2ccc(-c3ccc4ccn(S(=O)(=O)c5ccc(C)cc5)c4c3)c2)cc1	> 100	> 100	> 100	> 100	> 100	> 100	> 100	> 100	> 100	39.3								
CN(Cc1cnc2nc(N)nc(N)c2n1)c1ccc(C(=O)NC(CCC(=O)NC(CC(P(=O)(O)O)P(=O)(O)O)C(=O)O)C(=O)O)cc1 (stereo unspecified)		> 100	> 100	> 100	> 100	> 100	> 100	> 100		> 100								
CCC(=O)/C(=C\I)c1ccccc1		39.7	4.28	7.08	32.2	3.68	5.29		34.3	3.01								
C=Cc1nc(C#N)c(N)o1	> 100	> 100	> 100	> 100	> 100	> 100	> 100	> 100	> 100	> 100								
N#CC[N+]1(Cc2ccccn2)CCCC1	> 100	> 100	> 100	> 100	> 100	> 100	> 100	> 100	> 100	> 100								
COC([C@@H](OC(=O)c1ccccc1)[C@H](OC(=O)c1ccccc1)C(O)COC(=O)c1ccccc1)n1cc(C)c(=O)[nH]c1=O (stereo partly specified)		> 100	> 100	60.2	> 100	> 100	> 100	> 100		43.1								
CN(C)CC1CCC/C(=C\c2ccc(OC(=O)/C=C/c3ccc(Cl)c(Cl)c3)cc2)C1=O (stereo unspecified)	5.81	14.8	3.15	4.13	18.5	28.5	5.64	8.28	7.19	4.41								
O=C(N/N=C(/COc1ccccc1Cl)N=Cc1ccncc1)c1ccncc1	> 100	> 100	> 100	> 100	> 100	> 100	> 100	> 100	> 100	> 100								
COc1ccc([C@]23CCN4COC[C@@H]([C@H]42)C2(CC3)OCC(C)(C)CO2)cc1OC	> 100	> 100	> 100	> 100	> 100	> 100	> 100	> 100		> 100								

SMILES	TGI [1] [µM]	TGI [2] [µM]	TGI [3] [µM]	TGI [4] [µM]	TGI [5] [µM]	TGI [6] [µM]	TGI [7] [µM]	TGI [8] [µM]	TGI [9] [µM]	TGI [10] [µM]	GI50 [2]	GI50 [3]	GI50 [4]	GI50 [8]	GI50 [6]	GI50 [1] [nM]	GI50 [9] [nM]	GI50 [7] [nM]
Cc1c2ccccc2c(C)n2c1nc1ccccc12		36	43.8	> 100	39.5	> 100	30.9		18.6	21.5								
Cn1ccnc1CCc1ccc(Cl)c(Cl)c1	> 100	> 100	> 100	> 100		> 100	> 100	> 100	> 100	> 100								
O=C(O)CNC(=O)c1ccc2cc(C(=O)N3CC(CCl)c4ccc([N+](=O)[O-])cc43)[nH]c2c1 (stereo unspecified)	> 100		> 100	> 100	> 100	> 100	> 100	> 100	> 100	> 100								
O=C(C(Cl)=C(N1CCCCC1)N1CCCCC1)C(Cl)Cl	> 100	> 100	> 100	> 100	> 100	> 100	> 100	> 100	> 100	> 100								
CN(C)c1ccc(/C=C/C(=O)O)cc1	> 100	> 100	> 100	> 100		> 100	> 100	> 100	> 100									
Cc1ccc(S(=O)(=O)N/N=C2/CCC(C(C)(C)C)CC2Br)cc1 (stereo unspecified)	69.1	> 100	> 100	49.3	36.5	> 100	32.4	35.3	50.4									
CC(=O)NC1(C(=O)N[C@@H](Cc2ccccc2)C(=O)NC2CCCCC2)Cc2ccc3ccccc3c2-c2c(ccc3ccccc23)C1	> 100	> 100	> 100		> 100	> 100		> 100			12.2 µM and 57.3 µM	16.2 µM and 39.8 µM	1910 nM and 4430 nM	4.56 µM and 10.4 µM	8.67 µM and 33.2 µM			
COP(=O)(O)C(N)Cc1c[nH]c2ccccc12 (stereo unspecified)	> 100	> 100	> 100	> 100	> 100	> 100	> 100	> 100										
Clc1ccc(C2CC(c3cccc(Nc4ccncc4)c3)=NN2c2cc(Cl)cc(Cl)c2)cc1 (stereo unspecified)	3.13		3.32	5.01			3.29	3.79	3.2			1.71 µM	2170 nM	1.86 µM		1610	1690	1730
C[n+]1c2ccccc2c(/C=N\NS(=O)(=O)c2ccc(Cl)cc2)c2ccccc21	> 100	> 100	> 100	> 100		> 100	> 100	> 100	> 100	> 100								
CC(C)(C)OC(=O)N1[C@@H]2Cc3ccc(N)cc3[C@@]1(C)c1ccccc12	> 100	> 100	> 100	48.5	51.1		30.7	38.4		31.1								
CCOC(=O)CCC(NC(=O)Cc1ccc(Oc2nc3ccccc3nc2-c2ccccc2)cc1)C(=O)OCC (stereo unspecified)	> 100	> 100		> 100	> 100		> 100	> 100	> 100	> 100								
CC(=O)N(C(C)=O)n1c(Cc2ccc(C)cc2)nn(C(C)=O)c1=O	> 100	> 100	> 100	> 100	> 100	> 100	> 100	> 100	> 100									
COc1cccc(-c2nccc3c(OCc4ccccc4)c(OC)c(OC)cc23)c1		> 100	> 100	> 100		> 100	> 100	> 100	> 100	> 100								
NC(=Nc1ccccc1)c1ccccc1N	> 100	> 100	> 100	> 100	> 100	> 100				> 100								
O=C(c1ccc(O)c([N+](=O)[O-])c1)c1ccc(O)c([N+](=O)[O-])c1	> 100	> 100	> 100		> 100	> 100	> 100	> 100	> 100	> 100								
COc1ccc(CNc2nc3cc(C(F)(F)F)ccc3nc2-c2ccccc2)cc1OC	75.4	> 100	> 100	> 100	> 100	> 100		> 100	> 100	> 100								
O=C1C2=C(SCCS2)C(=O)c2c(Sc3ccc(Cl)cc3)c(Sc3ccc(Cl)cc3)c(Sc3ccc(Cl)cc3)c(Sc3ccc(Cl)cc3)c21	> 100	> 100	> 100	30.9	> 100	> 100	> 100			99.4								
CCOC(=O)c1[nH]c2cccc3c2c1CC[C@H](NC(=O)C(F)(F)F)C3=O	28	72.5	> 100	> 100	> 100	> 100	> 100		> 100									
O=[N+]([O-])c1ccc([N+]2=NC(c3ccccc3)=NN(c3ccccc3)C2)cc1	> 100	47.9	> 100	> 100		> 100	> 100	> 100	> 100	> 100								
O=C(CSc1nnc(-c2ccc(N=Cc3ccc(Cl)cc3)cc2)o1)Nc1ccc([N+](=O)[O-])cc1		> 100		36.7		> 100	37.7	38.3		34.6								
COC1=C2C=[N+](C)C3C(=C2C=CC1OC)Cc1cc2c(cc13)OCO2 (stereo unspecified)	29.3	26.8		17.8	> 100	> 100	18	21.4	24									
